Reference: ChEMBL document CHEMBL5029201, “Development of Polyamine Lassos as Polyamine Transport Inhibitors” (ACS Med Chem Lett, 2022)
Activity calls are given as the source filed them. No cut-off for these calls is given here.

Tests used:
[1] = system: L3.6pl; assay: Cytotoxicity against human L3.6pl cells assessed as reduction in cell growth measured after 72 hrs by CellTiter96 one aqueous solution assay; assay type: cell-based; details: for IC50: Homo sapiens, L3.6pl; for MTC: human, l3.6pl, time 72 hrs
[2] = Inhibition of polyamine transport system in human L3.6pI cells assessed as reduction in [3H] spermidine uptake by Lineweaver-Burk double reciprocal plot analysis; assay type: cell-based; details: l3.6pl
[3] = Inhibition of polyamine transport system in human L3.6pI cells assessed as reduction in [3H] putrescine uptake by Lineweaver-Burk double reciprocal plot analysis; assay type: cell-based; details: l3.6pl
[4] = system: L3.6pl; assay: Inhibition of [3H]spermine uptake in human L3.6pI cells at 3 to 10 uM measured after 15 mins by scintillation counter method; assay type: functional, cell-based; details: dose 3-10 µM
[5] = Inhibition of polyamine transport system in human L3.6pI cells assessed as reduction in [3H] spermine uptake by Lineweaver-Burk double reciprocal plot analysis; assay type: cell-based; details: l3.6pl
[6] = system: L3.6pl; assay: Inhibition of [3H]spermidine uptake in human L3.6pI cells at 3 to 10 uM measured after 15 mins by scintillation counter method; assay type: functional, cell-based; details: dose 3-10 µM
[7] = Decrease in intracellular polyamine level in human L3.6pI cells assessed as total polyamine level at 30 uM measured after 24 hrs in presence of DFMO by HPLC analysis (reference value: 20.7 nmol/mg); assay type: functional, L3.6pl
[8] = Decrease in intracellular polyamine level in human L3.6pI cells assessed as Spd/Spm molar ratio at 30 uM measured after 24 hrs in presence of DFMO and Spd by HPLC analysis (reference value: 0.4); assay type: functional, L3.6pl
[9] = Decrease in intracellular polyamine level in human L3.6pI cells assessed as total polyamine level at 30 uM measured after 24 hrs by HPLC analysis (reference value: 35.9 nmol/mg); assay type: functional, L3.6pl
[10] = Decrease in intracellular polyamine level in human L3.6pI cells assessed as Spd/Spm molar ratio at 30 uM measured after 24 hrs by HPLC analysis (reference value: 1.9); assay type: functional, L3.6pl
[11] = Decrease in intracellular polyamine level in human L3.6pI cells assessed as Spd/Spm molar ratio at 30 uM measured after 24 hrs in presence of DFMO by HPLC analysis (reference value: 0.2); assay type: functional, L3.6pl
[12] = (§1) Cytotoxicity against murine L1210 cells assessed as reduction in cell growth measured after 72 hrs by CellTiter96 one aqueous solution assay; assay type: cell-based, Mus musculus; details: mouse, L1210 cells; time 72 hrs; read-out: MTC
[13] = system: L1210; assay: as §1; assay type: cell-based, Mus musculus; details: Mus musculus, L1210, 72 h
[14] = Decrease in intracellular polyamine level in human L3.6pI cells assessed as total polyamine level at 30 uM measured after 24 hrs in presence of DFMO and Spd by HPLC analysis (reference value: 23.5 nmol/mg); assay type: functional, L3.6pl
[15] = Inhibition of polyamine transport system in murine L1210 cells assessed as reduction in [3H] spermidine uptake by Lineweaver-Burk double reciprocal plot analysis; assay type: cell-based, Mus musculus
[16] = system: L3.6pl; assay: Inhibition of spermidine uptake in human L3.6pI cells assessed as effect on cell growth measured after 72 hrs in presence of DFMO by CellTiter96 aqueous one solution assay; assay type: functional, cell-based
[17] = system: L3.6pl; assay: Inhibition of [3H]putresine uptake in human L3.6pI cells at up to 30 uM measured after 15 mins by scintillation counter method; assay type: functional, cell-based; details: dose microM <=30, time 15.0 min
[18] = system: L3.6pl; assay: Effect on human L3.6pI cells assessed as rescue of Ant44-induced toxicity at 30 uM measured after 24 hrs; assay type: functional

| Compound | IC50 [1] | MTC [1] | Ki [2] | Ki [3] | inhibition [4] | Ki [5] | inhibition [6] | Activity [7] | Ratio [8] | Activity [9] | Ratio [10] | Ratio [11] | MCC at 72 h [12] | IC50 [13] | Activity [14] | Ki [15] | Activity [16] | inhibition [17] | Activity [18] |
| --- | --- | --- | --- | --- | --- | --- | --- | --- | --- | --- | --- | --- | --- | --- | --- | --- | --- | --- | --- |
| C1CNCCNCCN1 | 980 µM | 250 µM |  |  |  |  |  |  |  |  |  |  |  |  |  |  |  |  |  |
| CNCCCCNCCCCNCc1cc(CNCCCCNCCCCNC)cc(CNCCCCNCCCCNC)c1 | 50 µM | 3 µM | 2.6 µM | 17.4 µM | Active | 0.9 µM | Active |  |  |  |  |  |  |  |  |  |  |  |  |
| Cl.Cl.Cl.Cl.Cl.NCCCCNCCCCN1CCNCCNCC1 | 1170 µM | 500 µM | 3.3 µM | 11.6 µM | Active | 1.3 µM | Active | 17 nmol/mg | 0.2 | 36.4 nmol/mg | 1.6 | 0.1 | > 100000 nM | > 100 µM | 20.8 nmol/mg | 1.9 µM | Active | inactive | Active |
| Cl.Cl.Cl.Cl.Cl.NCCCCNCCCCN1CCCNCCCNCCC1 | 368 µM | 100 µM | 3.7 µM |  |  |  |  |  |  |  |  |  | 1000 nM | > 100 µM |  | 7.1 µM | Active |  |  |
| C1CNCCCNCCCNC1 | 129 µM | 50 µM |  |  |  |  |  |  |  |  |  |  |  |  |  |  |  |  |  |
